Data on three compounds can be found in US6388080B1, “Polymorphic forms of 6-[4-(1-cyclohexyl-1H-tetrazol-5-yl)butoxy]-3,4-dihydro-2(1H)-quinolinone” (priority 2001, dated 2002).

Data set [1] is described as follows: bioavailability. The class given is in vivo. To be noted: Form A as prepared by the procedures of the '479 patent.
A short description of data set [2]: aqueous solubility of cilostazol polymorphic forms. To be noted: for solubility relative to Form A: suggested by lower melting point than Form A in DSC thermogram (FIG. 8). The data set is classed as physicochemical. A general note: Differential scanning calorimetry records heat flow against a reference as temperature is scanned.
Data set [3] is described as follows: stability of the polymorphic form. The data set is classed as physicochemical.
Data set [4] in a line: DSC of disturbed sample: solid state phase transformation to Form A. The class given is physicochemical. Conditions: sample disturbed (scratching/stressed), DSC heating from 30° C. to approximately 200° C. at 10° C. per minute; followed by melt of Form A at about 160° C. The source says:
Characterization of Form A of cilostazol, Form B of cilostazol, and Form C of cilostazol was further completed using DSC thermograms, shown in FIGS. 3, 4, and 5, respectively, with DSC thermograms for combinations of Form A and Form B; Form B and Form C; and Forms A, B, and C are shown in FIGS. 6, 7, and 8 respectively. DSC data were generated using a Mettler-Toledo DSC 821^e(Columbus, Ohio) with a Julabo FT900 intercooler chiller (Julabo Company; Allentown, Pa.). In general, samples were analyzed in a vented, sealed aluminum pan. Because the endothermic peak may vary depending upon the rate of heating and the calibration and precision of the instrument, with the amount of peak variation dependent upon the heating rate used, all thermograms included herein were run under the same, consistent conditions: heating at 10° C. per minute under a nitrogen purge at 40 mL/minute. The resultant sample of Example 1A was disturbed with scratching, which caused the cilostazol sample to undergo a solid state phase transformation at approximately 119° C. followed by an endotherm of melt at approximately 160° C. (Form A) during heating by DSC from 30° C. to approximately 200° C. at 10° C. per minute. When the sample is stressed and reheated (as detailed in Example 2A), the sample undergoes a solid state phase transformation at approximately 147° C. followed by an endotherm of melt at about 160° C. […]

For `O=C1CCc2cc(OCCCCc3nnnn3C3CCCCC3)ccc2N1` [Form A, 6-[4-(1-cyclohexyl-1H-tetrazol-5-yl)butoxy]-3,4-dihydro-2(1H)-quinolinone], the bioavailability result in data set [1] was “low”. Further, the aqueous solubility entry in data set [2] (Form A as prepared by the procedures of the '479 patent) is given as “low”.
For the compound `O=C1CCc2cc(OCCCCc3nnnn3C3CCCCC3)ccc2N1` [Form B, 6-[4-(1-cyclohexyl-1H-tetrazol-5-yl)butoxy]-3,4-dihydro-2(1H)-quinolinone], the “stability of the form” value in data set [3] is “stable”. Also, the “solubility relative to Form A” value in data set [2] is “more soluble than Form A”. Also, the “solid state phase transformation temperature” value in data set [4] was “approximately 119 °C”.
In the case of `O=C1CCc2cc(OCCCCc3nnnn3C3CCCCC3)ccc2N1` [Form C, 6-[4-(1-cyclohexyl-1H-tetrazol-5-yl)butoxy]-3,4-dihydro-2(1H)-quinolinone], the “stability of the form” value in data set [3] is given as “stable”. In addition, the “solubility relative to Form A” value in data set [2] was “more soluble than Form A”. In addition, in data set [4], the “solid state phase transformation temperature” value was “approximately 147 °C”.
